The text below walks through data of PubChem BioAssay (NCI).

Assay in all cases: NCI-60 cell line screen, 48 h
Test [1] relates to PC-3 prostate.
Test [2] deals with NCI-H226 lung.
In test [3] the test system is ACHN renal.
Test [4] relates to MCF7 breast.
Test [5] has as its system SW-620 colon.
The test system of test [6] is DU-145 prostate.
Test [7] concerns SN12C renal.
The test system of test [8] is OVCAR-3 ovarian.
Test [9] deals with UACC-62 melanoma.
The subject of test [10] is KM12 colon.

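Five concentrations, 48 hours, 96-well plates. GI50 marks 50% less growth. TGI: total growth inhibition.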

In the case of `c1cc(OCCN2CCCCCC2)ccc1CNc1ccc2nc(CCC3CCCCC3)[nH]c2c1`, the GI50 in [1] is 1.94 µM; in test [2], 1.88 µM; in test [3], 2.68 µM; in [4] it was 1.72 µM; in [5], 1.87 µM; in [6], 3.9 µM. Also, the GI50 in test [7] was 1.64 µM; in test [8], 1.89 µM; in test [9] it was 1.84 µM; in test [10], 2.84 µM. The TGI in [1] stood at 4.84 µM; in [2], 5.19 µM; in test [3], 7.97 µM; in [4], 4.12 µM; in test [5] it was 4 µM; in test [6], 14.6 µM. For the same compound, the TGI was determined as 4.57 µM in test [7], 4.25 µM in [8], 3.35 µM in [9] and 9.07 µM in test [10].
Consider `CCCCCCCC/C=C/CCCCCCCC1=NC(C)(C)CN1C(C)C`, for which the GI50 in test [1] is 1.31 µM; in test [2] it was 1.75 µM; in test [3] it was 1.65 µM; in test [4], 1.52 µM; in test [5], 1.59 µM; in test [6], 1.63 µM. Further, the GI50 in [7] is 1.46 µM; in test [8], 1.27 µM; in [9] it was 1.61 µM; in test [10] it was 1.62 µM. Moreover, the TGI in test [1] was 2.83 µM; in test [2], 4.52 µM; in test [3] it was 3.01 µM; in [4], 2.95 µM; in test [5], 2.94 µM; in test [6] it was 2.99 µM. Further, the TGI in test [7] worked out at 2.78 µM; in [8], 2.53 µM; in test [9], 3.02 µM; in [10] it was 2.97 µM.
Take `COc1ccc(-c2cnc3ccnn3c2-c2cc(OC)c(OC)c(OC)c2)cc1`: the GI50 in [1] was 2 µM; in [2] it was 8.13 µM; in test [3], 6.19 µM; in test [4], 3.51 µM; in test [5], 2.36 µM; in [6], 4.23 µM. Besides, the GI50 in test [7] was 5.4 µM; in [8], 2.51 µM; in test [9], 2.15 µM; in test [10] it was 1.67 µM. The TGI in [1], in [2], in test [3], in test [4], in [5] and in [6] was greater than 100 µM throughout. Besides, the TGI in test [7] was greater than 100 µM; in [8], 7.91 µM; in [9], greater than 100 µM; in test [10] it was greater than 100 µM.
As to `CCOC(=O)c1c(-c2ccccc2)[n+](=O)c2ccc(Cl)cc2n1[O-]`, the GI50 in test [1] is 3.05 µM; in test [2], 5.2 µM; in test [3] it was 2.93 µM; in test [4], 5.37 µM; in test [5], 5.59 µM; in test [6], 3.22 µM. The GI50 in test [7] is 3.38 µM; in test [8], 3.88 µM; in test [9], 12.5 µM; in test [10] it was 5.43 µM. The TGI in [1] amounted to 12 µM; in [2], 17.4 µM; in test [3] it was 11.3 µM; in [4], 40.6 µM; in test [5], 17.7 µM; in test [6], 11.9 µM. Moreover, the TGI in test [7] was found to be 13.1 µM; in test [8], 15.8 µM; in [9] it was 25.4 µM; in test [10], 18 µM.
On to `O=C1/C(=C\C(Cl)=C/c2ccc([N+](=O)[O-])cc2)SC(=S)N1CCc1ccc(O)cc1`, for which the GI50 in test [1] was 0.269 µM; in [2], 1.35 µM; in test [3], 0.249 µM; in test [4] it was 0.365 µM; in test [5], 0.324 µM; in test [6], 0.471 µM. Also, the GI50 in [7] is 0.33 µM; in [8] it was 0.4 µM; in [9] it was 0.566 µM; in [10], 0.312 µM. The TGI in [1] stood at 0.845 µM; in test [2] it was 3.48 µM; in test [3] it was 0.584 µM; in [4] it was 1.66 µM; in test [5], 1.26 µM; in test [6], 1.72 µM. The TGI in [7] is 1.38 µM; in [8], 1.43 µM; in [9], 1.86 µM; in [10], 1.05 µM.
`Cn1cccc1-c1cc(-c2cccs2)[nH]c(=O)c1C#N`: the GI50 in test [1], in test [2], in test [3], in test [4], in test [5] and in [6] was greater than 100 µM each time. The GI50 is greater than 100 µM in test [7], greater than 100 µM in test [8], 73.1 µM in test [9] and greater than 100 µM in test [10]. Besides, the TGI in [1], in test [2], in [3], in [4], in test [5] and in test [6] was greater than 100 µM in each case. The TGI in test [7], in test [8], in [9] and in test [10] was greater than 100 µM each time.
Turning to `O=C(Nc1nccs1)c1cc2c(cc1Cl)Sc1nccn1S2(=O)=O`, the GI50 was 16.8 µM in [1]; 19.6 µM in [2]; 17.7 µM in test [3]; 6.72 µM in test [4]; 16.8 µM in [5]; 16.3 µM in [6]. In addition, the GI50 was 16.8 µM in [7], 15 µM in test [8], 14.3 µM in test [9] and 12.4 µM in [10]. In addition, the TGI in test [1] came out at 33.4 µM; in [2] it was 35.6 µM; in test [3], 32.2 µM; in test [4], 19.9 µM; in [5], 42 µM; in test [6], 30 µM. Besides, the TGI in test [7] worked out at 32.6 µM; in [8], 28.3 µM; in test [9] it was 27.4 µM; in [10], 26.6 µM.
In the case of `COc1ccc(-c2nn(-c3cccc(NC(=O)Nc4ccc(Cl)c(C(F)(F)F)c4)c3)cc2-c2ccncc2)cc1Cl`, the GI50 in test [1] was 1.32 µM; in [2] it was 2.53 µM; in test [3] it was 2.32 µM; in test [4] it was 2.19 µM; in test [5] it was 3.66 µM; in test [6], 4.47 µM. Moreover, the figures for the GI50 in [7], in [9] and in [10] were 2.99 µM, 1.93 µM and 2 µM, respectively. Further, the TGI was 6.85 µM in test [1]; 8.22 µM in test [2]; 13.8 µM in test [3]; 13.7 µM in [4]; 63.9 µM in [5]; greater than 100 µM in test [6]. The TGI in [7] is greater than 100 µM; in [9] it was 5.01 µM; in test [10], 8.55 µM.
As for `CC#CS(=O)(=O)c1ccccc1`, the TGI in test [1] was determined as 25.2 µM; in test [2], 24.1 µM; in test [3] it was 12.8 µM; in test [4], 40.9 µM; in [5], 16.5 µM; in test [6], 10.2 µM. Besides, the TGI worked out at 19.4 µM in test [7], 3.59 µM in [8] and 14.2 µM in test [9].
As to `O=C(Nc1ccccc1)Nc1cccc(-n2cc(-c3ccncc3)c(-c3ccc(O)c(Cl)c3)n2)c1`, the GI50 in test [1] is 3.19 µM; in [2] it was 7.35 µM; in test [3] it was 2.95 µM; in [4], 2.75 µM; in [5] it was 3.67 µM; in [6], 5.66 µM. Moreover, the values for the GI50 in test [7], in test [9] and in test [10] were 4.13 µM, 3.73 µM and 3.3 µM, respectively. The TGI in test [1] was 19.6 µM; in test [2] it was greater than 100 µM; in [3] it was 34.7 µM; in test [4], 17.8 µM; in test [5] it was 38.4 µM; in test [6], greater than 100 µM. Besides, the TGI in test [7] was greater than 100 µM; in test [9] it was 15.5 µM; in [10] it was 10.5 µM.
On to `Oc1ccc(CNCc2ccccc2)c2cccnc12`, for which the TGI in test [1] was 59.8 µM; in [2], 66.7 µM; in test [3], 22.9 µM; in test [4], greater than 100 µM; in test [5], greater than 100 µM; in test [6] it was 38.4 µM. Besides, the TGI in test [8] is 0.721 µM; in test [9], greater than 34.8 µM; in test [10] it was greater than 100 µM.
Turning to `Cc1cc(C)c(O)c(Cc2cccc(Cc3cc(C)cc(C)c3O)c2O)c1`, the TGI in [1], in test [3], in test [4], in test [5], in test [6] and in test [7] was greater than 100 µM each time. The TGI in [8], in test [9] and in test [10] was greater than 100 µM throughout.
